In PMC6222789, “CF3-Substituted Mollugin 2-(4-Morpholinyl)-ethyl ester as a Potential Anti-inflammatory Agent with Improved Aqueous Solubility and Metabolic Stability” (Molecules : A Journal of Synthetic Chemistry and Natural …, 2018):

Target: T1, hERG channel (Homo sapiens, UniProt Q12809)
T1 construct: purchased Invitrogen PV5365
Test: hERG channel binding assay (fluorescence polarization)
Procedure: hERG channel binding assay was performed using Invitrogen’s hERG Fluorescence Polarization Assay kit (PV5365) with Synergy Neo plate reader (BioTek, Winooski, VT, USA). The binding assay was carried out according to the kit manufacturer’s instructions.

T1 sequence (Q12809 whole entry): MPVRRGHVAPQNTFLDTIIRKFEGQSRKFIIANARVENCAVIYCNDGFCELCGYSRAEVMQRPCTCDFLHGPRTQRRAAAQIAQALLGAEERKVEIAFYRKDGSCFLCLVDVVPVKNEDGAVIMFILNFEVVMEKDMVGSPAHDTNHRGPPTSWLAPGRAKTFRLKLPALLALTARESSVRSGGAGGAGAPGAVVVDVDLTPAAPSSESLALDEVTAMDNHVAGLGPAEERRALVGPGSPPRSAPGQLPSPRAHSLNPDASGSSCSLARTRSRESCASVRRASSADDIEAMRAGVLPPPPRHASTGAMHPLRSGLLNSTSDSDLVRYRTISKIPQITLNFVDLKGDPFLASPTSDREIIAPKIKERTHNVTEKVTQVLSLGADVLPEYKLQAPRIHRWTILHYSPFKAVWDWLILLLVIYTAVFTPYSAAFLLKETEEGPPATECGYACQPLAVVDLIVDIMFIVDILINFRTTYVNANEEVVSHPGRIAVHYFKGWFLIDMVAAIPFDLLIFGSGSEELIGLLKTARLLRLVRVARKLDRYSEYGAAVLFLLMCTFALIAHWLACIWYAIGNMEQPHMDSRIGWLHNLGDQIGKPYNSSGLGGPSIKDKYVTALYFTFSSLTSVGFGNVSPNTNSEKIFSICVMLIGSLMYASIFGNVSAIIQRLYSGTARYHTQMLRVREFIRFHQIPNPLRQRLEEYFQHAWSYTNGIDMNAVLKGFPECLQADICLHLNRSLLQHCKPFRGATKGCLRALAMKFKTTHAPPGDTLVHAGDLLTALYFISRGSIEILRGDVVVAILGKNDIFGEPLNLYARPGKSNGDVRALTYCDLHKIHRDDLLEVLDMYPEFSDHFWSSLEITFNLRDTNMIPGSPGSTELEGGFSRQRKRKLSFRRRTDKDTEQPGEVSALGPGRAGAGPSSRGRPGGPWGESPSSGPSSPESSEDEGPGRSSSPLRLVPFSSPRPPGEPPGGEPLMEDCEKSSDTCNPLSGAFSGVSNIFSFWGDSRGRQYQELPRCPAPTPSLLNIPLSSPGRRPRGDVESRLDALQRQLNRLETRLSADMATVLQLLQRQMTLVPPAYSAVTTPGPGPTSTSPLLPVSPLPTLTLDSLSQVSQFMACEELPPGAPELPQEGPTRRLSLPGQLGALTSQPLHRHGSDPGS

In the case of `CC1(C)C=Cc2c(C(=O)OCCN3CCOCC3)c(O)c3ccccc3c2O1` [6d, 2-Morpholinoethyl 6-hydroxy-2,2-dimethyl-2H-benzo[h]chromene-5-carboxylate], the IC50 is reported as over 10 µM.
